Reference: patent publication US20210322443A1 (MAPREG, priority 2015, published 2021)

How the values were obtained:
[1] = target: MAP2 (Homo sapiens, UniProt P11137); experiment: Binding by displacement of PREG-3H
[2] = target: purified tubulin and MAP2 (Homo sapiens, UniProt P11137); experiment: Increase in optical density at 345 nm of purified tubulin and MAP2 (microtubule polymerization); format: biochemical; details: 37° C., GTP
Experimental: Activity is measured by the increase in optical density at 345 nm of a mixture of purified tubulin and MAP2, incubated at 37° C. in the presence of GTP.

[3] = system: PC12 cells; experiment: Stimulation of neuritic sprouting in NGF-differentiated PC12 cells; format: cell-based; details: NGF 10 ng/ml, steroid 30 μM, 3 days, relative to PREG
Experimental: Stimulation of neuritic sprouting is conducted on PC12 cells differentiated in the presence of NGF (10 ng/ml) and the steroid being tested (30 μM) for 3 days. For each condition, the average length of the longest 200 neurites in each cell is measured simultaneously for 3 cultures.

[4] = target: T1, human progesterone receptor(PR) (Homo sapiens, UniProt P06401); experiment: Progesterone receptor agonist transactivation (MMTV-luciferase) in transfected HEK293T cells; format: cell-based; details: 24 hours, increasing amounts, FIG. 1
T1 construct: expressed in transfected cells; host or cells: HEK293T
T1 sequence (P06401 1-933): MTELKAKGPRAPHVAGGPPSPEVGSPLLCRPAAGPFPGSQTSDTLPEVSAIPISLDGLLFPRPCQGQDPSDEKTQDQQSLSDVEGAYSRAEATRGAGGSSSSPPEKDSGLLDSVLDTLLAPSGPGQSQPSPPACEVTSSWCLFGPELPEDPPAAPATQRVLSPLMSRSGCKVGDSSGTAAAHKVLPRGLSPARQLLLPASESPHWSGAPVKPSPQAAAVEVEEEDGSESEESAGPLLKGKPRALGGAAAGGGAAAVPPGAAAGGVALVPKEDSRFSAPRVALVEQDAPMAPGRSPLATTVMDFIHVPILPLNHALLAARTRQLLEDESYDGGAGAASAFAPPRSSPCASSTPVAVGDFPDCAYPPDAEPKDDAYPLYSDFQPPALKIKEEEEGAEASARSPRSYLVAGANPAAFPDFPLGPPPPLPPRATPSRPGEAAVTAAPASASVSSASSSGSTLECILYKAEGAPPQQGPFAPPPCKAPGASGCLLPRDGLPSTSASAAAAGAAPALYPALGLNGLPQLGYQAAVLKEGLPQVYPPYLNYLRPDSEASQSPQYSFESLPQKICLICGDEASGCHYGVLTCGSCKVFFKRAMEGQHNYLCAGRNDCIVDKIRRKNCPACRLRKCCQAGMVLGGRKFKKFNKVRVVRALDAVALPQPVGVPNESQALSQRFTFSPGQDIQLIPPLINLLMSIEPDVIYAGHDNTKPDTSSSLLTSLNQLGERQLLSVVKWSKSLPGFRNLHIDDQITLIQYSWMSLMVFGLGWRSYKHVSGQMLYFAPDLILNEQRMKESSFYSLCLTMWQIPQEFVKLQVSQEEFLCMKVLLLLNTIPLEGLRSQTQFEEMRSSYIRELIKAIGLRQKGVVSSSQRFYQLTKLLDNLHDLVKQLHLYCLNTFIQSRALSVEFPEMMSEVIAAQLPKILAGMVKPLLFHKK
Experimental: The main experimental setting used is the following: HEK293T cells were transiently transfected, using calcium phosphate precipitation technology, with expression vectors pSG5hPR (which permits expression of human progesterone receptor(PR)), pFC31-luc (contains the luciferase gene under the control of the MMTV promoter, which is in turn activated by binding of a progestin to progesterone receptor) and pcbetagal (which permits expression of betagalactosidase), and cultured during 24 hours with increasing amounts of various compositions: • 1. […] Test of progesterone receptor […] activity: transfected cells were cultured with progesterone (1 nM) and increasing amounts of RU486 (a well-known progesterone receptor antagonist) or 3-methoxy-pregnenolone. • With this setting, a compound with progesterone receptor antagonist activity competes with progesterone for the occupation of progesterone receptor and results in a progressive loss of transactivation activity when the amount of this compound is increased compared to progesterone.

Chain of MAP2 (P11137 whole entry): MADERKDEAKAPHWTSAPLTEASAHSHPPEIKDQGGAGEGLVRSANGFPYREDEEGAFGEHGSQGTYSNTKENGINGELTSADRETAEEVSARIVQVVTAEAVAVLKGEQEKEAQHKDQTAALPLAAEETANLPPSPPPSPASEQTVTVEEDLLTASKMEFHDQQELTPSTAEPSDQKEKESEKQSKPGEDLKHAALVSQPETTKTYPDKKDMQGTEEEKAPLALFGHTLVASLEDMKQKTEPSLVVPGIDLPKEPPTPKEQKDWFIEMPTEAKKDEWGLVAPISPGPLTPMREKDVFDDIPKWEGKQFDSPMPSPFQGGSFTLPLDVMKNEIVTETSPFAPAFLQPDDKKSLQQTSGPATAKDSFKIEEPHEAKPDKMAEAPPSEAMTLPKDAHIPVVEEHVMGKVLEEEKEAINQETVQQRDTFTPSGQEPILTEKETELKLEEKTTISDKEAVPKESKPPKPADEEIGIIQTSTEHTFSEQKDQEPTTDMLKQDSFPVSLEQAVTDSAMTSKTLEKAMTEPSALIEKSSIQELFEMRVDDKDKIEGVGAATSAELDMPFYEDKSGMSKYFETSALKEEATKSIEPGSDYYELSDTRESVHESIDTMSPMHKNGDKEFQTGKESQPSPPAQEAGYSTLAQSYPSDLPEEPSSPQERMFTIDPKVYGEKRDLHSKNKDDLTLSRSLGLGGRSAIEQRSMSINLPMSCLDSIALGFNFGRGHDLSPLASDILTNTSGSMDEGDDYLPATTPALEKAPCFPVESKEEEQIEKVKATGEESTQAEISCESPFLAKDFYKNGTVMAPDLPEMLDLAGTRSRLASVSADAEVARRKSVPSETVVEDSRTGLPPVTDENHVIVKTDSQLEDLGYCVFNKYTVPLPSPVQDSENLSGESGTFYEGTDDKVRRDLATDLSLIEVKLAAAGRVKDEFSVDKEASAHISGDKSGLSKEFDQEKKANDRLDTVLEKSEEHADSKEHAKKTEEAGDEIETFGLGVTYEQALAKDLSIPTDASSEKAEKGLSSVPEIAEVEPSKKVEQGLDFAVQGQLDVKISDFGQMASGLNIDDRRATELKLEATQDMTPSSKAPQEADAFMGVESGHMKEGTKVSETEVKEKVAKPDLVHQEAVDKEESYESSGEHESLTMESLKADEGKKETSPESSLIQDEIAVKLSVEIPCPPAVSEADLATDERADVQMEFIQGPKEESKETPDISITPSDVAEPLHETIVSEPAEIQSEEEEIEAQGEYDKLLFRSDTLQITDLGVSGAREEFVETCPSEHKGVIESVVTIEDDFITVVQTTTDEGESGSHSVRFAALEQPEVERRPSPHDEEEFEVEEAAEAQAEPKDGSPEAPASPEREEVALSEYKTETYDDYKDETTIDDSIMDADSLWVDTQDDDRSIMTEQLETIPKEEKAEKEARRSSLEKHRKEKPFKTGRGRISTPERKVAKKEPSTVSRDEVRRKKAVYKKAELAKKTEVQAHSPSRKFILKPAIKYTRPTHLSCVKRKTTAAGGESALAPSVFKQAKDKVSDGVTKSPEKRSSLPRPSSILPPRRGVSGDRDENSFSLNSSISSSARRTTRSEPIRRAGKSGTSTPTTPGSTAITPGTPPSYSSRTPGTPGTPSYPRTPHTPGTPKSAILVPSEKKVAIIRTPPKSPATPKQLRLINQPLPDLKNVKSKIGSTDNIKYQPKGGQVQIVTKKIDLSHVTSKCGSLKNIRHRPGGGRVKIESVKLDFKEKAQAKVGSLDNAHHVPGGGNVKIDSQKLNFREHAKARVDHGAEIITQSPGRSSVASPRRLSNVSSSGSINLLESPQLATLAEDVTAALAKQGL
Chain of purified tubulin and MAP2 (P11137 whole entry): as above

SMILES | Affinity (index of binding, percent of PREG) [1] | Activity (percent of PREG) [2] | Neuritic sprouting [3] | progesterone receptor agonist activity (transactivation, luciferase expression) [4]
CO[C@H]1CC[C@@]2(C)C(=CC[C@H]3C4=CC[C@H](C(C)=O)[C@@]4(C)CC[C@@H]32)C1 [3B-methoxy-pregna-5,14-diene-20-one] | 102% of PREG | 50% of PREG | + (stimulation is lower than) | 
CC(=O)[C@H]1CC[C@H]2[C@@H]3CC=C4C[C@@H](O)CC[C@]4(C)[C@H]3CC[C@]12C [Pregnenolone (PREG), 3β-hydroxypregn-5-en-20-one, reference compound] | 100% of PREG | 100% of PREG |  | 
CO[C@H]1CC[C@@]2(C)C(CCC3C2CC[C@@]2(C)C3CC[C@@H]2[C@@H](C)O)C1 (stereo partly drawn) [3B-methoxy-5a-pregnane-20B-ol, 3β-methoxy-5α-pregnane-20β-ol] | 65% of PREG | 65% of PREG | ++ (equal to) | 
CC(=O)[C@H]1CC[C@H]2[C@@H]3CCC4=CC(=O)CC[C@]4(C)[C@H]3CC[C@]12C [progesterone, reference compound] |  |  |  | permits a transactivation activity leading to the expression of luciferase
CO[C@H]1CC[C@@]2(C)C(=CC[C@@H]3[C@@H]2CC[C@@]2(C)[C@H]3CC[C@@]2(C(C)=O)C(Cl)Cl)C1 [3β-methoxy-pregna-5-ene-20-one-17α-dichloromethyl] | 53% of PREG | 113% of PREG |  | 
CO[C@H]1CC[C@@]2(C)[C@@H](CC[C@@H]3[C@@H]2CC[C@]2(C)[C@@H](C(C)=O)CC[C@@H]32)C1 [3B-methoxy-5a-pregnane-20-one, 3β-methoxy-5α-pregnane-20-one] | 87% of PREG | 10% of PREG | +++ | 
